The source of these data is ChEMBL document CHEMBL4270624, “Synthesis and antibacterial evaluation of 13-substituted cycloberberine derivatives as a novel class of anti-MRSA agents” (Eur J Med Chem, 2018).

The nature of series [1]: Oral bioavailability in Sprague-Dawley rat at 5 mg/kg administered as single dose. It counts as ADME, organism-based. To be noted: in vivo.
For series [2], the system named is Staphylococcus aureus. In words: Antibacterial activity against methicillin-resistant Staphylococcus aureus 13-18 clinical isolate after 18 hrs by agar dilution method. To be noted: 13-18, 18 h. The class given is functional. For orientation: In agar dilution, organisms are placed on agar that contains the substance at set levels.
In series [3] the test system is Staphylococcus aureus. In words: Antibacterial activity against methicillin-resistant Staphylococcus aureus 16-34 clinical isolate after 18 hrs by agar dilution method. To be noted: 16-34, 18 h. The class given is functional.
Series [4] concerns Staphylococcus aureus. As to the kind of experiment: Antibacterial activity against methicillin-resistant Staphylococcus aureus ATCC 33591 after 18 hrs by agar dilution method. The class given is functional. To be noted: ATCC 33591, 18 h.
The nature of series [5]: Mean residence time (0 to t) in Sprague-Dawley rat at 5 mg/kg, po administered as single dose. It counts as ADME, organism-based. As to conditions: in vivo.
A short description of series [6]: Tmax in Sprague-Dawley rat at 5 mg/kg, po administered as single dose. The class given is ADME, organism-based. As to conditions: in vivo.
Series [7] is described as follows: Toxicity in iv dosed Kunming mouse administered as single dose measured for 7 days. The class given is organism-based. As to conditions: in vivo.
Series [8] can be described thus: Stability of the compound in Sprague-Dawley rat whole blood assessed as parent compound remaining after 24 hrs by LC-MS/MS analysis. The class given is ADME, tissue-based. As to conditions: read-out: Stability.
For series [9], the system named is Staphylococcus aureus. In words: Antibacterial activity against methicillin-resistant Staphylococcus aureus ATCC 43300 after 18 hrs by agar dilution method. The class given is functional. To be noted: ATCC 43300, 18 h.
The test system of series [10] is Staphylococcus aureus. As to the kind of experiment: Antibacterial activity against methicillin-resistant Staphylococcus aureus 13-23 clinical isolate after 18 hrs by agar dilution method. As to conditions: 13-23, 18 h. It counts as functional.
For series [11], the system named is Staphylococcus aureus. As to the kind of experiment: Antibacterial activity against methicillin-resistant Staphylococcus aureus ATCC BAA-1708 after 18 hrs by agar dilution method. It counts as functional. As to conditions: ATCC BAA-1708, 18 h.
Series [12] deals with Staphylococcus aureus. As to the kind of experiment: Antibacterial activity against methicillin-sensitive Staphylococcus aureus 16-1 clinical isolate after 18 hrs by agar dilution method. The class given is functional. As to conditions: 16-1, 18 h.
Series [13] concerns Staphylococcus aureus. In words: Antibacterial activity against methicillin-resistant Staphylococcus aureus ATCC BAA-976 after 18 hrs by agar dilution method. It counts as functional. As to conditions: ATCC BAA-976, 18 h.
Series [14] in a line: AUC (0 to t) in Sprague-Dawley rat at 1 mg/kg, iv administered as single dose. The class given is ADME, organism-based. As to conditions: in vivo.
For series [15], the system named is Staphylococcus aureus. As to the kind of experiment: Antibacterial activity against methicillin-sensitive Staphylococcus aureus ATCC 29213 after 18 hrs by agar dilution method. To be noted: ATCC 29213, 18 h. The class given is functional.
Series [16] in a line: Stability of the compound in Sprague-Dawley rat whole blood assessed as parent compound remaining after 1 hr by LC-MS/MS analysis. To be noted: read-out: Stability. It counts as ADME, tissue-based.
Series [17] is described as follows: Cmax in Sprague-Dawley rat at 5 mg/kg, po administered as single dose. It counts as ADME, organism-based. Also on record: dose 5 mg/kg, route oral. As to conditions: in vivo.
Series [18] is described as follows: Half life in Sprague-Dawley rat at 1 mg/kg, iv administered as single dose. The class given is ADME, organism-based. As to conditions: in vivo.
Series [19] can be described thus: AUC (0 to t) in Sprague-Dawley rat at 5 mg/kg, po administered as single dose. It counts as ADME, organism-based. As to conditions: in vivo.
The test system of series [20] is Staphylococcus aureus. As to the kind of experiment: Antibacterial activity against methicillin-resistant Staphylococcus aureus 16-30 clinical isolate after 18 hrs by agar dilution method. It counts as functional. To be noted: 16-30, 18 h.
A short description of series [21]: Half life in Sprague-Dawley rat at 5 mg/kg, po administered as single dose. The class given is ADME, organism-based. To be noted: in vivo.
The nature of series [22]: Mean residence time (0 to t) in Sprague-Dawley rat at 1 mg/kg, iv administered as single dose. The class given is ADME, organism-based. To be noted: in vivo.
A short description of series [23]: Stability of the compound in Sprague-Dawley rat whole blood assessed as parent compound remaining after 0.5 hrs by LC-MS/MS analysis. The class given is ADME, tissue-based. As to conditions: read-out: Stability.

Take `COc1ccc2c(c[n+]3c4c2cc(Cc2ccccc2C)c2c5c(cc(c24)CC3)OCO5)c1OC.[Br-]`: the bioavailability – broadly, dose-corrected exposure relative to a reference, in per cent – in [1] amounted to 0.8%. In addition, the MIC in the series with Staphylococcus aureus [2], with Staphylococcus aureus [3], in the series on Staphylococcus aureus [4], in the series with Staphylococcus aureus [9], in the series on Staphylococcus aureus [10] and against Staphylococcus aureus [11] was 2 µg/mL in each case. Also, the MIC (as a rule, the lowest concentration found to suppress growth) in the series on Staphylococcus aureus [12] was found to be 2 µg/mL; in the series on Staphylococcus aureus [13] it was 1 µg/mL; in the series with Staphylococcus aureus [15] it was 4 µg/mL; against Staphylococcus aureus [20] it was 4 µg/mL. Also, the MRT last – broadly, the average time that molecules of a dose stay in the body – in [5] stood at 2.1 h; in [22] it was 4.3 h. For the same molecule, the Tmax (usually the time from dosing to the highest level) in series [6] came out at 1 h. Also, in series [7], the LD50 (as a rule, the dose expected to kill half of the subjects tested) at 168 h is 65.6 mg/kg. In series [8], the remaining at 24 h is 80.9%. Also, the AUC(0-t) – broadly, the area under the concentration-time curve up to a stated or last time point – in [14] was 724 ng·h/mL; in series [19], 28.3 ng·h/mL. In series [16], the remaining at 1 h came to 94.2%. For the same molecule, the maximum concentration (Cmax) – broadly, the peak of the concentration-time curve – in series [17] turned out to be 11.7 ng/mL. For the same molecule, the half-life (in general, the time in which the quantity being followed falls by half) is 7.2 h in series [18] and 1.5 h in series [21].
Regarding `COc1ccc2c(c[n+]3c4c2cc(C(C)c2ccccc2)c2c5c(cc(c24)CC3)OCO5)c1OC.[Br-]` (configuration not stated), the minimal inhibitory concentration (MIC) turned out to be 2 µg/mL against Staphylococcus aureus [2]; 2 µg/mL in the series on Staphylococcus aureus [3]; 2 µg/mL against Staphylococcus aureus [4]; 4 µg/mL against Staphylococcus aureus [9]; 2 µg/mL in the series on Staphylococcus aureus [10]; 4 µg/mL in the series with Staphylococcus aureus [11]. The MIC against Staphylococcus aureus [12] worked out at 2 µg/mL; against Staphylococcus aureus [13] it was 1 µg/mL; in the series with Staphylococcus aureus [15], 2 µg/mL; against Staphylococcus aureus [20] it was 2 µg/mL. Also, the LD50 at 168 h in series [7] was found to be 41.2 mg/kg. Also, the remaining at 24 h in series [8] amounted to 77.3%. Also, the remaining at 1 h in series [16] worked out at 91.2%.
Consider `COc1ccc2c(c[n+]3c4c2cc(Cc2ccc(F)cc2)c2c5c(cc(c24)CC3)OCO5)c1OC.[Br-]`, for which the MIC worked out at 4 µg/mL against Staphylococcus aureus [2]; 4 µg/mL against Staphylococcus aureus [3]; 4 µg/mL with Staphylococcus aureus [4]; 4 µg/mL in the series with Staphylococcus aureus [9]; 2 µg/mL against Staphylococcus aureus [10]; 8 µg/mL against Staphylococcus aureus [11]. The minimum inhibitory concentration (MIC) in the series with Staphylococcus aureus [12], with Staphylococcus aureus [13], against Staphylococcus aureus [15] and in the series on Staphylococcus aureus [20] was 4 µg/mL throughout.
Take `COc1ccc2c(c[n+]3c4c2cc(Cc2c(F)cccc2F)c2c5c(cc(c24)CC3)OCO5)c1OC.[Br-]`: the MIC against Staphylococcus aureus [2] was 4 µg/mL; in the series on Staphylococcus aureus [3], 2 µg/mL; in the series with Staphylococcus aureus [4], 8 µg/mL; against Staphylococcus aureus [9], 8 µg/mL; in the series with Staphylococcus aureus [10], 4 µg/mL; with Staphylococcus aureus [11], 8 µg/mL. Further, the MIC amounted to 4 µg/mL in the series on Staphylococcus aureus [12], 2 µg/mL in the series on Staphylococcus aureus [13], 4 µg/mL with Staphylococcus aureus [15] and 4 µg/mL against Staphylococcus aureus [20].
As to `CCOC(=O)[C@H](CCc1ccccc1)N[C@@H](C)C(=O)N1CCC[C@H]1C(=O)O` [ENALAPRIL], in series [23], the remaining at 0.5 h turned out to be 42.9%. Further, the remaining at 1 h in series [16] came out at 10.9%.
Take `COc1ccc2c(c[n+]3c4c2cc(Cc2ccc(C)cc2)c2c5c(cc(c24)CC3)OCO5)c1OC.[Br-]`: the MIC was 4 µg/mL in the series with Staphylococcus aureus [2]; 2 µg/mL in the series on Staphylococcus aureus [3]; 2 µg/mL in the series with Staphylococcus aureus [4]; 4 µg/mL with Staphylococcus aureus [9]; 4 µg/mL in the series on Staphylococcus aureus [10]; 8 µg/mL against Staphylococcus aureus [11]. Further, the minimal inhibitory concentration (MIC) with Staphylococcus aureus [12], against Staphylococcus aureus [13], with Staphylococcus aureus [15] and with Staphylococcus aureus [20] was 2 µg/mL throughout.
For `C[C@H]1COc2c(N3CCN(C)CC3)c(F)cc3c(=O)c(C(=O)O)cn1c23.C[C@H]1COc2c(N3CCN(C)CC3)c(F)cc3c(=O)c(C(=O)O)cn1c23.O` [LEVOFLOXACIN], the minimal inhibitory concentration (MIC) came to 32 µg/mL against Staphylococcus aureus [2]; 32 µg/mL against Staphylococcus aureus [3]; 0.125 µg/mL against Staphylococcus aureus [4]; 0.125 µg/mL against Staphylococcus aureus [9]; 32 µg/mL with Staphylococcus aureus [10]; 8 µg/mL against Staphylococcus aureus [11]. The MIC is 0.125 µg/mL in the series on Staphylococcus aureus [12], 0.125 µg/mL in the series on Staphylococcus aureus [13], 0.125 µg/mL in the series on Staphylococcus aureus [15] and 32 µg/mL in the series on Staphylococcus aureus [20].
As for `COc1ccc2c(c[n+]3c4c2cc(Cc2ccc(C(C)C)cc2)c2c5c(cc(c24)CC3)OCO5)c1OC.[Br-]`, the MIC with Staphylococcus aureus [2] is 32 µg/mL; in the series on Staphylococcus aureus [3], 16 µg/mL; against Staphylococcus aureus [4] it was 8 µg/mL; with Staphylococcus aureus [9], 32 µg/mL; in the series with Staphylococcus aureus [10] it was 32 µg/mL; with Staphylococcus aureus [11] it was 32 µg/mL. Further, the MIC stood at 8 µg/mL in the series on Staphylococcus aureus [12], 16 µg/mL against Staphylococcus aureus [13], 8 µg/mL in the series with Staphylococcus aureus [15] and 16 µg/mL in the series on Staphylococcus aureus [20].
Turning to `COc1ccc2c(c[n+]3c4c2cc(Cc2ccc(OC(F)(F)F)cc2)c2c5c(cc(c24)CC3)OCO5)c1OC.[Br-]`, the minimal inhibitory concentration (MIC) against Staphylococcus aureus [2] stood at 32 µg/mL; in the series with Staphylococcus aureus [3], 64 µg/mL; against Staphylococcus aureus [4] it was 32 µg/mL; with Staphylococcus aureus [9], 64 µg/mL; in the series on Staphylococcus aureus [10], 32 µg/mL; in the series with Staphylococcus aureus [11], 64 µg/mL. In addition, the minimum inhibitory concentration (MIC) with Staphylococcus aureus [12] is 64 µg/mL; in the series with Staphylococcus aureus [13], 64 µg/mL; against Staphylococcus aureus [15], 32 µg/mL; against Staphylococcus aureus [20], 64 µg/mL.
